The source of these data is patent EP4745134A1 (Jiangsu Yahong Meditech Co., Ltd., priority 2023, dated 2025).

The test system of one assay is HCT116 MTAP KO cells. Description: Inhibitory activity against cell proliferation (CellTiter Glo, 6 days), HCT116 MTAP KO. It is filed as cell-based. The settings on record: for pIC50: HCT116 MTAP KO cells, 6 days, CellTiter Glo, read-out: HCT116 MTAP KO IC50; for Selectivity HCT 116-WT/ HCT116 MTAP KO: ratio of IC50 HCT116-WT / HCT116 MTAP KO. The gist of the method:
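Following overnight attachment of 250 cells per well in McCoy's 5A medium with 10% FBS, compounds spanning 8 concentrations (4-fold, top 10000 nM) were applied for 6 days. Growth inhibition IC50 was derived from luminescent ATP signal.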

For another assay, the system named is HCT116-WT cells. Briefly: Inhibitory activity against cell proliferation (CellTiter Glo, 6 days), HCT116-WT. It is filed as cell-based. The settings on record: HCT116-WT cells, 6 days, CellTiter Glo, read-out: HCT116-WT IC50. The method, then: HCT116-WT (ATCC, CCL-247) and HCT116 MTAP KO (Nanjing Cobioer, CBP75002) cells were seeded into white low-transparency sterile 96-well cell culture plates at a density of 250 cells per well respectively, and the culture medium was McCoy's 5A Medium+10% FBS. The plates were placed under the condition of 37°C and 5% CO2 to be cultured overnight. The cells were treated with 4-fold serially diluted compounds of 8 concentration points starting at an initial concentration of 10000 nM, and the last two columns were used as control wells to which only DMSO was added. The drug-treated cells were further cultured for 6 days. On day 7, CellTiter Glo® reagent was added at 50 uL per well, and after reaction under shaking for 10 minutes at room temperature, the chemiluminescence signals were detected for the well plates through the chemiluminescence detection method using a BIOTEK H1 multifunctional microplate-reader. The IC50 values for inhibition of the compounds on cell viability were calculated in X1fit 5.0 software. Table 2. IC50 values for inhibition of the compounds on HCT116 MTAP KO/WT cell growth
A general note: ATP-based viability assays read luminescence as a measure of living cells.

pIC50: −log10 of the molar value. Read-outs that look alike come from different tables or passages of the source.

For `Cc1cc2cc(C(=O)N(Cc3ccc(-c4ccc(N(C)C(C)C)nc4)cn3)N(C)c3ncccn3)ccc2nc1N` [Example 257, 2-amino-N-((6'-(isopropyl(methyl)amino) -[3,3'-bipyridin]-6-yl)methyl)-N',3-dimet hyl-N'-(pyrimidin-2-yl)quinoline-6-carbo hydrazide], the pIC50 (commonly the IC50 on a negative log10 scale, so that one unit is a factor of ten) in the assay on HCT116 MTAP KO cells (Homo sapiens, HCT-116, 144 h) is 7.12; with HCT116-WT cells (144 h), 5.99. Further, in the assay on HCT116 MTAP KO cells, the “Selectivity HCT 116-WT/ HCT116 MTAP KO” value turned out to be 13.42.
The like results for `Cc1cc2cc(C(=O)N(Cc3ccc(-c4cnc5c(cnn5C)c4)cn3)N(C)c3ncccn3)ccc2nc1N` [Example 190, 2-amino-N',3-dimethyl-N-((5-(1-methyl-1H-pyrazolo[3,4-b]pyridin-5-yl)pyridin-2-yl)methyl)-N'-(pyrimidin-2-yl)quinoline-6-carbohydrazide] were, in that order, 7.49, 6.08 and 26.09.
Turning to `Cc1cc2cc(C(=O)N(Cc3ccc(I)cn3)N(C)c3ncccn3)ccc2nc1N` [Example 263, 2-amino-N-((5-iodopyridin-2-yl)methyl)-N',3-dimethyl-N'-(pyrimidin-2-yl)quinoline-6-carbohydrazide], the pIC50 in the assay on HCT116 MTAP KO cells (Homo sapiens, HCT-116, 144 h) is 7.77; with HCT116-WT cells (144 h), 6.39. Besides, the “Selectivity HCT 116-WT/ HCT116 MTAP KO” value in the assay with HCT116 MTAP KO cells stood at 23.76.
For the compound `Cn1ncc2c(N)nc3cc(Cl)c(C(=O)N4CC(C)(F)CN4c4ncc(Br)cc4F)cc3c21` (stereo not drawn) [Example 420, (4-amino-7-chloro-1-methyl-1H-pyrazolo [4,3-c]quinolin-8-yl)(2-(5-bromo-3-fluor opyridin-2-yl)-4-fluoro-4-methylpyrazolidin-1-yl)methanone], the pIC50 is 7.59 in the assay with HCT116 MTAP KO cells (Homo sapiens, HCT-116, 144 h) and 6.13 in the assay on HCT116-WT cells (144 h). Further, the “Selectivity HCT 116-WT/ HCT116 MTAP KO” value with HCT116 MTAP KO cells is on record as 28.58.
The like results for `Cc1cc2cc(C(=O)N(Cc3ccc(-c4nccs4)cn3)N(C)c3ncccn3)ccc2nc1N` [Example 234, 2-amino-N',3-dimethyl-N'-(pyrimidin-2-yl)-N-((5-(thiazol-2-yl)pyridin-2-yl)methyl)quinoline-6-carbohydrazide] were, in that order, 7.70, 6.12 and 37.50.
For `Cc1cc2nc(N)c3cnn(C)c3c2cc1C(=O)N1CCCN1c1ncc(-c2cnc3c(cnn3C)c2)cc1F` [Example 482, (4-amino-1,7-dimethyl-1H-pyrazolo[4,3-c]quinolin-8-yl)(2-(3-fluoro-5-(1-methyl-1H-pyrazolo[3,4-b]pyridin-5-yl)pyridin-2-yl)pyrazolidin-1-yl)methanone] the same measures were 7.22, 5.27 and 89.47.
The like results for `Cc1cc2cc(C(=O)N(Cc3ccc(-c4cnc5nn(C)cc5c4)cn3)N(C)c3ncccn3)ccc2nc1N` [Example 150, 2-amino-N',3-dimethyl-N-((5-(2-methyl-2H-pyrazolo[3,4-b]pyridin-5-yl)pyridin-2-yl)methyl)-N'-(pyrimidin-2-yl)quinoline-6-carbohydrazide] were, in that order, 7.54, 6.15 and 24.41.
`Cc1csc(-c2ccc(CN(C(=O)c3ccc4nc(N)c(C)cc4c3)N(C)c3ncccn3)nc2)n1` [Example 227, 2-amino-N',3-dimethyl-N-((5-(4-methylthiazol-2-yl)pyridin-2-yl)methyl)-N'-(pyrimidin-2-yl)quinoline-6-carbohydrazide]: the pIC50 was 6.85 in the assay with HCT116 MTAP KO cells (Homo sapiens, HCT-116, 144 h) and 5.47 in the assay with HCT116-WT cells (144 h). The “Selectivity HCT 116-WT/ HCT116 MTAP KO” value with HCT116 MTAP KO cells was 24.44.
For `Cn1ncc2c(N)nc3cc(Cl)c(C(=O)N4CC(C)(F)CN4c4cccc(F)n4)cc3c21` (stereo not drawn) [Example 426, (4-amino-7-chloro-1-methyl-1H-pyrazolo [4,3-c]quinolin-8-yl)(4-fluoro-2-(6-fluoropyridin-2-yl)-4-methylpyrazolidin-1-yl)m ethanone], the pIC50 in the assay on HCT116 MTAP KO cells (Homo sapiens, HCT-116, 144 h) is 7.31; in the assay with HCT116-WT cells (144 h), 6.15. Further, the “Selectivity HCT 116-WT/ HCT116 MTAP KO” value in the assay on HCT116 MTAP KO cells is given as 14.29.
The like results for `Cc1cc2nc(N)c3cnn(C)c3c2cc1C(=O)N1CCCN1c1ncc(-c2cnn(C(F)(F)F)c2)cc1F` [Example 480, (4-amino-1,7-dimethyl-1H-pyrazolo[4,3-c]quinolin-8-yl)(2-(3-fluoro-5-(1-(trifluor omethyl)-1H-pyrazol-4-yl)pyridin-2-yl)pyrazolidin-1-yl)methanone] were, in that order, 7.26, 5.75 and 32.16.
`Cc1cc2cc(C(=O)N(Cc3ccc(-c4ccc(N5CCC5)nc4)cn3)N(C)c3ncccn3)ccc2nc1N` [Example 256, 2-amino-N-((6'-(azetidin-1-yl)-[3,3'-bipyridin]-6-yl)methyl)-N',3-dimethyl-N'-(pyrimidin-2-yl)quinoline-6-carbohydrazide]: the pIC50 in the assay on HCT116 MTAP KO cells (Homo sapiens, HCT-116, 144 h) is 7.28; in the assay on HCT116-WT cells (144 h), 6.06. Further, the “Selectivity HCT 116-WT/ HCT116 MTAP KO” value in the assay on HCT116 MTAP KO cells is 16.83.
Turning to `Cc1cc2cc(C(=O)N(Cc3ccc(-c4ccn(C)c(=O)c4)cn3)N(C)c3ncccn3)ccc2nc1N` [Example 209, 2-amino-N',3-dimethyl-N-((1'-methyl-2'-oxo-1',2'-dihydro-[3,4'-bipyridine]-6-yl)methyl)-N'-(pyrimidin-2-yl)quinoline-6-car bohydrazide], the pIC50 in the assay with HCT116 MTAP KO cells (Homo sapiens, HCT-116, 144 h) was 7.59; in the assay on HCT116-WT cells (144 h) it was 6.15. Besides, the “Selectivity HCT 116-WT/ HCT116 MTAP KO” value in the assay on HCT116 MTAP KO cells was determined as 27.54.
The like results for `CN(c1ncccc1F)N(Cc1ccc(C(F)(F)F)cn1)C(=O)c1ccc2nc(N)c3cnn(C)c3c2c1` [Example 74, 4-amino-N'-(3-fluoropyridin-2-yl)-N ',1-dimethyl-N-((5-(trifluoromethyl)pyridin-2-yl)methyl)-1H-pyrazolo[4,3-c]quinoline-8-carbohydrazide] were, in that order, 8.36, 7.05 and 20.45.
As to `CN(c1ncccn1)N(Cc1ccc(-c2cnn(C(F)(F)F)c2)cn1)C(=O)c1ccc2nc(N)c3cnn(C)c3c2c1` [Example 248, 4-amino-N',1-dimethyl-N'-(pyrimidin-2-yl)-N-((5-(1-(trifluoromethyl)-1H-pyrazol-4-yl)pyridin-2-yl)methyl)-1H-pyrazolo[4,3-c]quinoline-8-carbohydrazide], the pIC50 was 8.41 in the assay with HCT116 MTAP KO cells (Homo sapiens, HCT-116, 144 h) and 7.20 with HCT116-WT cells (144 h). Moreover, the “Selectivity HCT 116-WT/ HCT116 MTAP KO” value in the assay with HCT116 MTAP KO cells was 16.15.
As to `Cc1cc2cc(C(=O)N(Cc3ccc(-c4cnc5c(cnn5C)c4)cn3)N(C)c3ncccn3)ccc2nc1N` [Example 198, 2-amino-N',3-dimethyl-N-((5-(1-methyl-1H-pyrazolo[3,4-b]pyridin-5-yl)pyridin-2-yl)methyl)-N'-(pyrimidin-2-yl)quinoline-6-carbohydrazide], in the assay with HCT116 MTAP KO cells, the pIC50 is 7.49 and the “Selectivity HCT 116-WT/ HCT116 MTAP KO” value is 26.09. The pIC50 with HCT116-WT cells was 6.08.
Take `CC1OCc2c1c(N)nc1ccc(C(=O)N(Cc3ccc(C(F)(F)F)cn3)N(C)c3ncccn3)cc21` (stereo not drawn) [Example 70, 4-amino-N',3-dimethyl-N'-(pyrimidin-2-yl)-N-((5-(trifluoromethyl)pyridin-2-yl)methyl)-1,3-dihydrofuro[3,4-c]quinoline-8-carbohydrazide]: the pIC50 was 7.68 in the assay on HCT116 MTAP KO cells (Homo sapiens, HCT-116, 144 h) and 6.65 with HCT116-WT cells (144 h). The “Selectivity HCT 116-WT/ HCT116 MTAP KO” value with HCT116 MTAP KO cells turned out to be 10.57.
The like results for `[2H]C([2H])([2H])c1cc2cc(C(=O)N(Cc3ccc(C(F)(F)F)cn3)Nc3ncccn3)ccc2nc1N` [Example 312, 2-amino-3-(methyl-D3)-N'-(pyrimidin-2-yl)-N-((5-(trifluoromethyl)pyridin-2-yl)methyl)quinoline-6-carbohydrazide] were, in that order, 7.03, 5.52 and 32.33.
The like results for `Cc1cc2nc(N)c3cnn(C)c3c2cc1C(=O)N1CC(O)(C(F)(F)F)CN1c1ncccc1F` (stereo not drawn) [Example 355, (4-amino-1,7-dimethyl-1H-pyrazolo[4,3-c]quinolin-8-yl)(2-(3-fluoropyridin-2-yl)-4-hydroxy-4-(trifluoromethyl)pyrazolidin-1-yl)methanone] were, in that order, 6.82, 5.32 and 32.00.
For `CN(c1ccccc1F)N(Cc1ccc(C(F)(F)F)cn1)C(=O)c1ccc2nc(N)c3cnn(C)c3c2c1` [Example 281, 4-amino-N'-(2-fluorophenyl)-N',1-dimethyl-N-((5-(trifluoromethyl)pyridin-2-yl)methyl)-1H-pyrazolo[4,3-c]quinoline-8-carb ohydrazide] the same measures were 8.48, 7.38 and 12.73.
Take `Cc1csc(-c2ccc(CN(C(=O)c3ccc4nc(N)c(C)cc4c3)N(C)c3ncccn3)nc2)c1` [Example 146, 2-amino-N',3-dimethyl-N-((5-(4-methylthien-2-yl)pyridin-2-yl)methyl)-N'-(pyrimidin-2-yl)quinoline-6-carbohydrazide]: the pIC50 with HCT116 MTAP KO cells (Homo sapiens, HCT-116, 144 h) is 7.12; in the assay with HCT116-WT cells (144 h), 5.92. Besides, the “Selectivity HCT 116-WT/ HCT116 MTAP KO” value in the assay with HCT116 MTAP KO cells is reported as 15.85.
